Here are results for seven compounds from US10336732B2, “1-heterocyclyl isochromanyl compounds and analogs for treating CNS disorders” (Sunovion Pharmaceuticals Inc., priority 2015, dated 2019).

The assay has as its system mice. As to the kind of experiment: Neuropharmacological assay (SmartCube), behavioral signature of compound-treated mice. Format: in vivo. The note with it: i.p. 15 min before behavioral test, most efficacious dose(s) of 3 doses. The gist of the method:
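Read-out is an automated video-based behavioral signature, scored as per-class probabilities (e.g., anxiolytic, antidepressant) against reference compounds. Dosing was i.p. at three doses, 15 min pre-test, in NMP, polyethylene glycol and propylene glycol. Values shown are from the most efficacious dose(s).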
With `c1ccc2c(c1)CCO[C@@H]2[C@H]1CCN1` [Compound I-81, (R)-2-((S)-isochroman-1-yl)azetidine], the “AD: ADHD (probability that behavioral signature matches class)” value (from here on “AD: ADHD”) is reported as “+ (LOQ ≤ + <5%)”, the “AG: analgesic (probability that behavioral signature matches class)” value (“AG: analgesic” for short) is “++ (5% ≤ ++ <25%)”, the “AX: anxiolytic (probability that behavioral signature matches class)” value (from here on “AX: anxiolytic”) was “+++ (25% ≤ +++ <50%)” and the “CE: cognitive enhancer (probability that behavioral signature matches class)” value (shortened to “CE: cognitive enhancer”) is listed as “++ (5% ≤ ++ <25%)”. In addition, the “DP: anti-depressant (probability that behavioral signature matches class)” value (“DP: anti-depressant” below) is “++ (5% ≤ ++ <25%)”, the “HA: hallucinogen (probability that behavioral signature matches class)” value (shortened to “HA: hallucinogen”) is reported as “+ (LOQ ≤ + <5%)”, the “MS: mood stabilizer (probability that behavioral signature matches class)” value (from here on “MS: mood stabilizer”) is listed as “+ (LOQ ≤ + <5%)” and the “PS: anti-psychotic (probability that behavioral signature matches class)” value (“PS: anti-psychotic” below) was “++ (5% ≤ ++ <25%)”. Besides, the “SD: sedative hypnotic (probability that behavioral signature matches class)” value (from here on “SD: sedative hypnotic”) is “+++ (25% ≤ +++ <50%)”, the “UN: uncharacterized CNS activity (probability that behavioral signature matches class)” value (from here on “UN: uncharacterized CNS activity”) is “+ (LOQ ≤ + <5%)” and the “XG: anxiogenic (probability that behavioral signature matches class)” value (“XG: anxiogenic” for short) is reported as “+ (LOQ ≤ + <5%)”.

For the compound `FC1(F)CO[C@H]([C@@H]2CCCN2)c2ccccc21` [Compound I-139, (S)-2-((S)-4,4-difluoroisochroman-1-yl)pyrrolidine], the “AD: ADHD” value is recorded as “+ (LOQ ≤ + <5%)”, the “AG: analgesic” value is given as “+ (LOQ ≤ + <5%)”, the “AX: anxiolytic” value was “++ (5% ≤ ++ <25%)” and the “CE: cognitive enhancer” value was “++ (5% ≤ ++ <25%)”. Moreover, the “DP: anti-depressant” value is “++ (5% ≤ ++ <25%)”, the “HA: hallucinogen” value was “+ (LOQ ≤ + <5%)”, the “MS: mood stabilizer” value is “+ (LOQ ≤ + <5%)” and the “PS: anti-psychotic” value is given as “+++ (25% ≤ +++ <50%)”. Further, the “SD: sedative hypnotic” value is on record as “+ (LOQ ≤ + <5%)”, the “UN: uncharacterized CNS activity” value is “+ (LOQ ≤ + <5%)” and the “XG: anxiogenic” value is listed as “+ (LOQ ≤ + <5%)”.

For the compound `c1cc(-c2ccc3c(c2)CCO[C@@H]3[C@@H]2CCCN2)on1` [Compound I-55, 5-((S)-1-((S)-pyrrolidin-2-yl)isochroman-6-yl)isoxazole], the “AD: ADHD” value is “+ (LOQ ≤ + <5%)”, the “AG: analgesic” value was “+ (LOQ ≤ + <5%)”, the “AX: anxiolytic” value is “+ (LOQ ≤ + <5%)” and the “CE: cognitive enhancer” value is on record as “+ (LOQ ≤ + <5%)”. The “DP: anti-depressant” value is “+ (LOQ ≤ + <5%)”, the “HA: hallucinogen” value is recorded as “+ (LOQ ≤ + <5%)”, the “MS: mood stabilizer” value was “+ (LOQ ≤ + <5%)” and the “PS: anti-psychotic” value is “+ (LOQ ≤ + <5%)”. For the same compound, the “SD: sedative hypnotic” value is “+ (LOQ ≤ + <5%)”, the “UN: uncharacterized CNS activity” value is on record as “+ (LOQ ≤ + <5%)” and the “XG: anxiogenic” value is “+ (LOQ ≤ + <5%)”.

Consider `Cc1cccc2c1[C@H]([C@H]1CCCN1)OCCC2` [Compound I-103, (R)-2-((R)-9-methyl-1,3,4,5-tetrahydrobenzo[c]oxepin-1-yl)pyrrolidine], for which the “AD: ADHD” value was “+ (LOQ ≤ + <5%)”, the “AG: analgesic” value is reported as “++ (5% ≤ ++ <25%)”, the “AX: anxiolytic” value is “++ (5% ≤ ++ <25%)” and the “CE: cognitive enhancer” value is given as “+ (LOQ ≤ + <5%)”. In addition, the “DP: anti-depressant” value was “++ (5% ≤ ++ <25%)”, the “HA: hallucinogen” value is “+ (LOQ ≤ + <5%)”, the “MS: mood stabilizer” value was “+ (LOQ ≤ + <5%)” and the “PS: anti-psychotic” value is “+ (LOQ ≤ + <5%)”. For the same compound, the “SD: sedative hypnotic” value is on record as “++ (5% ≤ ++ <25%)”, the “UN: uncharacterized CNS activity” value is on record as “+++ (25% ≤ +++ <50%)” and the “XG: anxiogenic” value was “+ (LOQ ≤ + <5%)”.

In the case of `Cc1cccc2c1[C@@H]([C@@H]1CCCN1)OCC2` [Compound I-21, (S)-2-((S)-8-methylisochroman-1-yl)pyrrolidine], the “AD: ADHD” value is recorded as “+ (LOQ ≤ + <5%)”, the “AG: analgesic” value was “++ (5% ≤ ++ <25%)”, the “AX: anxiolytic” value is listed as “++ (5% ≤ ++ <25%)” and the “CE: cognitive enhancer” value was “+ (LOQ ≤ + <5%)”. The “DP: anti-depressant” value is “++ (5% ≤ ++ <25%)”, the “HA: hallucinogen” value was “+ (LOQ ≤ + <5%)”, the “MS: mood stabilizer” value is reported as “+ (LOQ ≤ + <5%)” and the “PS: anti-psychotic” value is reported as “++ (5% ≤ ++ <25%)”. Besides, the “SD: sedative hypnotic” value is “+ (LOQ ≤ + <5%)”, the “UN: uncharacterized CNS activity” value is “+++ (25% ≤ +++ <50%)” and the “XG: anxiogenic” value is given as “+ (LOQ ≤ + <5%)”.

With `Fc1ccc2c(c1)CO[C@@H]2[C@H]1CCCN1` [Compound I-120, (R)-2-((S)-5-fluoro-1,3-dihydroisobenzofuran-1-yl)pyrrolidine], the “AD: ADHD” value is “+ (LOQ ≤ + <5%)”, the “AG: analgesic” value was “++ (5% ≤ ++ <25%)”, the “AX: anxiolytic” value was “++ (5% ≤ ++ <25%)” and the “CE: cognitive enhancer” value is on record as “+++ (25% ≤ +++ <50%)”. Besides, the “DP: anti-depressant” value was “++ (5% ≤ ++ <25%)”, the “HA: hallucinogen” value is given as “+ (LOQ ≤ + <5%)”, the “MS: mood stabilizer” value is “++ (5% ≤ ++ <25%)” and the “PS: anti-psychotic” value was “++ (5% ≤ ++ <25%)”. The “SD: sedative hypnotic” value is recorded as “++ (5% ≤ ++ <25%)”, the “UN: uncharacterized CNS activity” value is “++ (5% ≤ ++ <25%)” and the “XG: anxiogenic” value was “+ (LOQ ≤ + <5%)”.

Turning to `Clc1ccc2c(c1)[C@@H]([C@H]1CCCN1)OCC2` [Compound I-32, (R)-2-((S)-7-chloroisochroman-1-yl)pyrrolidine], the “AD: ADHD” value is given as “+ (LOQ ≤ + <5%)”, the “AG: analgesic” value is given as “+++ (25% ≤ +++ <50%)”, the “AX: anxiolytic” value was “++ (5% ≤ ++ <25%)” and the “CE: cognitive enhancer” value is “++ (5% ≤ ++ <25%)”. Also, the “DP: anti-depressant” value is listed as “++ (5% ≤ ++ <25%)”, the “HA: hallucinogen” value was “+ (LOQ ≤ + <5%)”, the “MS: mood stabilizer” value is reported as “+ (LOQ ≤ + <5%)” and the “PS: anti-psychotic” value is reported as “+++ (25% ≤ +++ <50%)”. Besides, the “SD: sedative hypnotic” value is “++ (5% ≤ ++ <25%)”, the “UN: uncharacterized CNS activity” value is “+ (LOQ ≤ + <5%)” and the “XG: anxiogenic” value is “+ (LOQ ≤ + <5%)”.
